Results: patent US12123009B2, “Methods and compositions for PPO herbicide tolerance in plants” (Monsanto Technology LLC, priority 2015, dated 2024)

Key:
[1] = system: maize (LH244), non-transgenic or expressing H_N10 (SEQ ID NO:4); assay: Transgenic Maize Herbicide Tolerance I (R0 plants sprayed); type: in vivo; conditions: 7 days
From the text: The plant transformation constructs were annotated construct 1, 6, 11, and 16. For maize in planta testing, immature maize (LH244) embryos were transformed with using Agrobacterium tumefaciens and standard methods known in the art.
Leaf samples were collected from R0 plants and screened by PCR to determine the number of copies of the transgene inserted into the plant genome. The plants containing a single copy (single copy) were selfed and outcrossed to generate R1 and F1 seed for future testing, respectively. Plants containing multiple copies (multi-copy) were sprayed as follows: (1) 5 g/ha S-3100 at approximately the V5 growth stage followed by 10 g/ha S-3100 at approximately the V7 growth stage, for a total application of 15 g/ha S-3100 or (2) 10 g/ha S-3100 at approximately the V5 growth stage. The average percentage of injury, on a scale of 0-100 with zero being no injury and 100 being complete crop death, was assessed 7 days after the final treatment for each batch.

[2] = system: soybean (A3555), non-transgenic or expressing H_N10 (SEQ ID NO: 4); assay: R0 soybean sprayed with S-3100; type: in vivo; conditions: 5 g/ha, V3, 8 days
Description: In soybean, excised embryos (A3555) were transformed with the transformation constructs 1 and 11 using A. tumefaciens and standard methods known in the art. […] Regenerated R0 transgenic plantlets were grown in the greenhouse. […] The herbicide was sprayed at the V3 developmental stage with three fully developed trifoliate leaves and injury ratings were assessed 8 days after treatment. The percentage of plants that were deemed highly tolerant (15% or less injury) was noted.
The herbicide was sprayed at the V3 developmental stage with three fully developed trifoliate leaves and injury ratings taken 8 days after treatment. The percentage of plants that were deemed highly tolerant (25% or less injury) was noted.

[3] = system: R0 transgenic soybean expressing HemG PPO with targeting peptide; assay: R0 transgenic soybean herbicide tolerance: percent injury scores; type: in vivo; conditions: seven days
From the text: This permitted the side-by-side comparison of seven different HemG PPO enzymes with thirty-seven different targeting peptides using the same promoter and 3′UTR elements for gene expression. These plant transformation constructs were used to transform soybean excised embryos (germplasm A3555) using A. tumefaciens and standard methods known in the art. Four hundred explants were inoculated for each construct resulting in twelve containers per construct. A sterile PPO herbicide solution was used for herbicide tolerance testing. The herbicide solution consisted of 0.3 g of S-3100 in crop oil concentrate (5.0 mL) and 495 mL of deionized water. This was filtered through a 0.45 micron Nalgene® Rapid-Flow™ Tissue Culture Filter Unit and Surfactant-Free Cellulose Acetate membrane filter unit (VWR, Radnor, PA, USA). The resulting sterile solution was shaken before application.
The plantlets in the non-sprayed containers corresponding to constructs having a score of 2 were transplanted at approximately 7 weeks post transformation and grown as R0 plants using standard methods known in the art. Plantlets corresponding to non-tolerant scores of 0 and 1 were also grown to serve as negative controls. The R0 plants were grown in a greenhouse under long-day nursery conditions (18 hr light at 80° F. then 6 hr dark at 74° F.) for approximately four weeks. At eleven weeks, the R0 plants were sprayed with two passes of the same herbicide solution (0.3 g of 5-3100) described above. Herbicide injury ratings were collected seven days after treatment.
The results of the herbicide tolerance application at eleven weeks to the R0 plants confirmed the low percent injury rating scores observed in the high-throughput screen at five weeks. Any injury rating of 30% or above was equivalent to non-transgenic soybean injury ratings. A few of the constructs stood out as providing very good tolerance to the herbicide application. […] Data are provided in Table 10, where n.d. indicates the analysis was not conducted.

[4] = system: leaf discs of soybean, non-transgenic or expressing H_N10 (SEQ ID NO: 4); assay: Leaf disc assay, soybean; type: in vivo; conditions: 1 micromolar
Description: A leaf-disc assay was employed for rapid and minimally damaging assessment of herbicide tolerance in transgenic plants expressing a recombinant PPO enzyme. Leaf tissue was sampled from the youngest fully-green leaf of corn and soybean plants. Five 4-mm diameter leaf discs were cut from the leaf samples using a disposable biopsy punch with a plunger (Integra® Miltex®, Inc., York. Pennsylvania) and the leaf discs were placed into one ml of incubation solution (1 mM MES, pH 6.5, 1% w/v sucrose, 1% (v/v) acetone) in 24-well polystyrene plates with lids. For herbicide tolerance analysis, S-3100 was added to the incubation solution to a final concentration of 1 micromolar. Vacuum infiltration was applied and plates of leaf discs were incubated in continuous darkness for one day at room temperature (23-24° C.) followed by one (soybean) or two (corn) days continuous light incubation under overhead fluorescent and incandescent bulbs (520 uE) at 26-27° C. Leaf disc injury was then scored visually on a scale from 0 (lowest injury) to 4 (highest injury), with lower scores indicating better tolerance to the PPO herbicide.

[5] = molecular target: H_N60 (SEQ ID NO: 3), microbial HemG protoporphyrinogen oxidase; assay: PPO enzyme assay (bacterial extract); conditions: read-out: S-3100 IC50; 3 μM protogen; pH 7.4, 37° C.
[6] = H_N10 (SEQ ID NO: 4), construct 11

CCOC(=O)COc1ncccc1Oc1cc(-n2c(=O)cc(C(F)(F)F)n(C)c2=O)c(F)cc1Cl [S-3100, ethyl [3-2-chloro-4-fluoro-5-(1-methyl-6-trifluoromethyl-2,4-dioxo-1,2,3,4-tetrahydropyrimidin-3-yl)phenoxy]-2-pyridyloxylacetate]
Average Injury ([1]; H_N10, construct 6, Treatment 1: 5 g/ha V5 then 10 g/ha V7 (15 g/ha total)): 28.9% | Average Injury ([1]; H_N10, construct 16, Treatment 2: 10 g/ha V5): 24.2% | Average Injury ([1]; nontransgenic, Treatment 1: 5 g/ha V5 then 10 g/ha V7 (15 g/ha total)): 43.3% | Average Injury ([1]; nontransgenic, Treatment 2: 10 g/ha V5): 26.7% | average injury rating [2, 6]: 47% | highly tolerant plants (25% or less injury) [2, 6]: 30% | average injury rating ([2]; non-transgenic): 60% | highly tolerant plants (25% or less injury) ([2]; non-transgenic): no highly tolerant plants | percent injury score ([3]; H_N20, TP6): 15% | percent injury score ([3]; H_N20, TP7): 20% | percent injury score ([3]; H_N30, TP1): 5% | percent injury score ([3]; H_N40, TP1): 5% | percent injury score ([3]; H_N40, TP4): 15% | percent injury score ([3]; H_N40, TP7): 40% | percent injury score ([3]; H_N40, TP8): 30% | percent injury score ([3]; H_N50, TP6): 40% | percent injury score ([3]; H_N90 (SEQ ID NO:11), TP20): 5% | percent injury score ([3]; H_N90 (SEQ ID NO:11), TP32): 50% | percent injury score ([3]; H_N90, TP1): 3% | percent injury score ([3]; H_N90, TP2): 35% | percent injury score ([3]; H_N90, TP3): 30% | percent injury score ([3]; H_N90, TP6): 25% | percent injury score ([3]; H_N90, TP7): 15% | percent injury score ([3]; H_N90, TP8): 40% | percent injury score ([3]; H_N100, TP1): 15% | percent injury score ([3]; H_N100, TP6): 30% | percent injury score ([3]; H_N100, TP7): 30% | leaf disc injury rating (0 lowest to 4 highest injury) ([4]; H_N10, construct 1): zero | leaf disc injury rating (0 lowest to 4 highest injury) ([4]; H_N10, construct 11): 1.6 | leaf disc injury rating (0 lowest to 4 highest injury) ([4]; non-transgenic): 2.6 | IC50 [5]: > 100 µM
